Data as given in ChEMBL document CHEMBL1133899, “Amino acid derived sulfonamide hydroxamates as inhibitors of procollagen C-proteinase: solid-phase synthesis of ornithine analogues” (Bioorg Med Chem Lett, 2001).

Tests used:
[1] = target: T1, Bone morphogenetic protein 1 (Homo sapiens, UniProt P13497); experiment: Inhibitory activity against procollagen C-Proteinase (PCP).
T1 sequence (P13497 whole entry): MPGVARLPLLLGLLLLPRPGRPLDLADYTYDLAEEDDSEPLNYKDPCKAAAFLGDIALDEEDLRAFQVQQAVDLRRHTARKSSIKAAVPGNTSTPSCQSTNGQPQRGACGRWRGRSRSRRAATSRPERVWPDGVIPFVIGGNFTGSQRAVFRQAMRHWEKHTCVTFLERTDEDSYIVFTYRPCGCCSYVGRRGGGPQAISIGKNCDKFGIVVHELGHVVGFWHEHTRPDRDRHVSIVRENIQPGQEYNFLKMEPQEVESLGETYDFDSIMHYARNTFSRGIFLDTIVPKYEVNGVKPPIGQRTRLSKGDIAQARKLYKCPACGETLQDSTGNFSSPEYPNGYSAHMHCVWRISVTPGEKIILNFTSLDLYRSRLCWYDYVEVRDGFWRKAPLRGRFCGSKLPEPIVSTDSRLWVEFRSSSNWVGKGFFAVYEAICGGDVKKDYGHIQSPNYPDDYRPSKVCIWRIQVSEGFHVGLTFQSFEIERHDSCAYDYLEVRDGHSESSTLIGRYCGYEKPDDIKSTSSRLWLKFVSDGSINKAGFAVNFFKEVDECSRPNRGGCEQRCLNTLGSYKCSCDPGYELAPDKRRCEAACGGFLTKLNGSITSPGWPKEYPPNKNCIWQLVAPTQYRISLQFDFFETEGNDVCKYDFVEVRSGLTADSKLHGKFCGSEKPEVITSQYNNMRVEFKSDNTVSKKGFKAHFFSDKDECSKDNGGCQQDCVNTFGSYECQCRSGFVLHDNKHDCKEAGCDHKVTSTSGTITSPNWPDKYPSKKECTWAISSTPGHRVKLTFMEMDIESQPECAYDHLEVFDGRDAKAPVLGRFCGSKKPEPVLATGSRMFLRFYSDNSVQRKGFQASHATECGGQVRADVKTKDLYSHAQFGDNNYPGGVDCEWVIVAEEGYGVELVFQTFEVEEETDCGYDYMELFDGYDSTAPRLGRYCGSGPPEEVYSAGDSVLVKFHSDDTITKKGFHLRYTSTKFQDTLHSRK

[2] = target: T1, Bone morphogenetic protein 1; experiment: The compound was evaluated for its inhibitory effect against Procollagen C-terminal proteinase

Structure (SMILES) | IC50 [1] [nM] | IC50 [2] [nM]
COc1ccc(S(=O)(=O)N(Cc2ccc3c(c2)OCO3)[C@H](CCCNC(=O)OCc2ccccc2Br)C(=O)NO)cc1 | 24 | –
COc1ccc(S(=O)(=O)N(Cc2ccc3c(c2)OCO3)[C@H](CCCNC(=O)NCCc2ccccc2)C(=O)NO)cc1 | 50 | –
CCOC(=O)NCCC[C@H](C(=O)NO)N(Cc1ccc2c(c1)OCO2)S(=O)(=O)c1ccc(OC)cc1 | 220 | –
COc1ccc(S(=O)(=O)N(Cc2ccc3c(c2)OCO3)[C@H](CCCNC(=O)OCC(C)C)C(=O)NO)cc1 | 45 | –
COc1ccc(S(=O)(=O)N(C)[C@H](CCCNC(=O)Nc2ccccc2)C(=O)NO)cc1 | 1600 | –
COc1ccc(S(=O)(=O)N[C@H](CCCNC(=O)C(C)C)C(=O)NO)cc1 | 1400 | –
COc1ccc(S(=O)(=O)N(Cc2ccc3c(c2)OCO3)[C@H](CCCNC(=O)OCc2ccccc2Cl)C(=O)NO)cc1 | 3.9 | –
COc1ccc(S(=O)(=O)N(Cc2ccc3c(c2)OCO3)[C@H](CCCNC(=O)OCc2ccccc2)C(=O)NO)cc1 | 9 | –
COc1ccc(S(=O)(=O)N(Cc2ccc3c(c2)OCO3)[C@H](CCCNC(=O)OCc2cccc([N+](=O)[O-])c2)C(=O)NO)cc1 | 38 | –
C[C@@H](NC(=O)NCCC[C@@H](NS(=O)(=O)c1ccc(S(=O)(=O)c2cccs2)cc1)C(=O)NO)c1ccccc1 | 5000 | –
COc1ccc(S(=O)(=O)N(Cc2ccc3c(c2)OCO3)[C@H](CCCNC(=O)c2ccccc2)C(=O)NO)cc1 | 98 | –
COc1ccc(S(=O)(=O)N(Cc2ccc3c(c2)OCO3)[C@H](CCCNC(=O)OCc2ccc([N+](=O)[O-])cc2)C(=O)NO)cc1 | 45 | –
COc1ccc(S(=O)(=O)N(C)[C@H](CCCNC(=O)NC(C)c2ccccc2)C(=O)NO)cc1 (stereo partly specified) | 2300 | –
C[C@@H](NC(=O)NCCC[C@@H](NS(=O)(=O)c1ccc(Cl)s1)C(=O)NO)c1ccccc1 | 9600 | –
COc1ccc(S(=O)(=O)N(Cc2ccc3c(c2)OCO3)[C@H](CCCNC(=O)NCc2cccc(C)c2)C(=O)NO)cc1 | 50 | –
COc1ccc(S(=O)(=O)N[C@H](CCCNC(=O)C2CC2)C(=O)NO)cc1 | 770 | –
COc1ccc(S(=O)(=O)N(Cc2ccc3c(c2)OCO3)[C@H](CCCNC(=O)NCc2ccccc2)C(=O)NO)cc1 | 58 | –
COc1ccc(S(=O)(=O)N(Cc2ccc3c(c2)OCO3)[C@H](CCCNC(=O)NCc2cccc3ccccc23)C(=O)NO)cc1 | 120 | –
C[C@@H](NC(=O)NCCC[C@@H](NS(=O)(=O)c1ccc(Cl)cc1)C(=O)NO)c1ccccc1 | 910 | –
COc1ccc(S(=O)(=O)N[C@H](CCCNC(=O)C2CCCCC2)C(=O)NO)cc1 | 1600 | –
C[C@@H](NC(=O)NCCC[C@@H](NS(=O)(=O)c1ccccc1Cl)C(=O)NO)c1ccccc1 | 2300 | –
COc1ccc(S(=O)(=O)N[C@H](CCCNC(=O)NC2CCCCC2)C(=O)NO)cc1 | – | 230
CCCNC(=O)NCCC[C@H](C(=O)NO)N(Cc1ccc2c(c1)OCO2)S(=O)(=O)c1ccc(OC)cc1 | 97 | –
COc1ccc(S(=O)(=O)N[C@H](CCC/N=C(\S)NC2CCCCC2)C(=O)NO)cc1 | 1700 | –
C[C@@H](NC(=O)NCCC[C@@H](NS(=O)(=O)c1ccc(F)cc1Cl)C(=O)NO)c1ccccc1 | 61000 | –
COc1ccc(S(=O)(=O)N(Cc2cccnc2)[C@@H](C(=O)NO)C(C)C)cc1 [CGS-27023A] | 3000 | –
COc1ccc(S(=O)(=O)N[C@@H](CCCNC(=O)NC2CCCCC2)C(=O)NO)cc1 | 3600 | –
COc1ccc(S(=O)(=O)N[C@H](CCCNC(=O)OC(C)(C)C)C(=O)NO)cc1 | 4500 | –
COc1cc(C)c(S(=O)(=O)N[C@H](CCCNC(=O)N[C@H](C)c2ccccc2)C(=O)NO)c(C)c1 | 23000 | –

Second part, the compound after the results:

IC50 [1] [nM] | IC50 [2] [nM] | Structure (SMILES)
110 | 110 | COc1ccc(S(=O)(=O)N[C@H](CCCNC(=O)N[C@H](C)c2ccccc2)C(=O)NO)cc1
7200 | – | COc1ccc(S(=O)(=O)N(C)[C@H](CCCNC(=O)Nc2ccccc2Cl)C(=O)NO)cc1
7800 | – | COc1ccc(S(=O)(=O)N[C@@H](CCCNC(=O)Nc2ccccc2Cl)C(=O)NO)cc1
970 | – | COc1ccc(S(=O)(=O)N[C@H](CCCNC(=O)CCc2ccccc2)C(=O)NO)cc1
92 | – | COc1ccc(S(=O)(=O)N[C@H](CCCNC(=O)Nc2ccccc2Cl)C(=O)NO)cc1
6900 | – | COc1ccc(S(=O)(=O)N[C@@H](CCCNC(=O)Nc2ccccc2)C(=O)NO)cc1
78 | – | COc1ccc(S(=O)(=O)N[C@H](CCCNC(=O)NCCc2cccs2)C(=O)NO)cc1
1600 | – | COc1ccc(S(=O)(=O)N[C@@H](CCCNC(=O)N[C@H](C)c2cccc3ccccc23)C(=O)NO)cc1
290 | – | COc1ccc(S(=O)(=O)N[C@@H](CCCNC(=O)NC2CC2c2ccccc2)C(=O)NO)cc1 (stereo partly specified)
990 | – | COc1ccc(S(=O)(=O)N[C@H](CCCNC(=S)NCc2ccccc2)C(=O)NO)cc1
4000 | – | COc1ccc(S(=O)(=O)N[C@@H](CCCNC(=O)Nc2cccc(F)c2)C(=O)NO)cc1
160 | – | COc1ccc(S(=O)(=O)N[C@H](CCCNC(=O)N[C@H](C)c2cccc3ccccc23)C(=O)NO)cc1
5500 | – | COc1ccc(S(=O)(=O)N[C@@H](CCCNC(=O)NCCc2cccs2)C(=O)NO)cc1
55 | – | COc1ccc(S(=O)(=O)N[C@H](CCCNC(=O)Nc2ccccc2)C(=O)NO)cc1
160 | – | COc1ccc(S(=O)(=O)N[C@H](CCCNC(=O)Nc2cccc(F)c2)C(=O)NO)cc1
5900 | – | COC(=O)[C@@H](Cc1ccccc1)NC(=O)NCCC[C@H](NS(=O)(=O)c1ccc(OC)cc1)C(=O)NO
2100 | – | COc1ccc(S(=O)(=O)N[C@@H](CCCNC(=O)N[C@H](C)c2ccccc2)C(=O)NO)cc1
260 | – | COc1ccc(S(=O)(=O)N[C@H](CCCNC(=O)Nc2ccccc2C)C(=O)NO)cc1
140 | – | COC(=O)[C@@H](Cc1ccccc1)NC(=O)NCCC[C@@H](NS(=O)(=O)c1ccc(OC)cc1)C(=O)NO
3400 | – | COc1ccc(S(=O)(=O)N[C@H](CCCNS(=O)(=O)c2ccccc2)C(=O)NO)cc1
170 | – | COc1ccc(S(=O)(=O)N[C@H](CCCNC(=O)N[C@@H]2C[C@H]2c2ccccc2)C(=O)NO)cc1
